Reference: patent US8623857B2, “N-phenyl imidazole carboxamide inhibitors of 3-phosphoinositide-dependent protein kinase-1” (Merck Sharp & Dohme Corp., priority 2010, dated 2014)

Target: T1, recombinant human PDK1 (Homo sapiens, UniProt O15530)
T1 construct: containing amino acids 51-556 of the human PDK1 enzyme; made in house; host or cells: Sf9 insect cells
T1 sequence (O15530 51-556): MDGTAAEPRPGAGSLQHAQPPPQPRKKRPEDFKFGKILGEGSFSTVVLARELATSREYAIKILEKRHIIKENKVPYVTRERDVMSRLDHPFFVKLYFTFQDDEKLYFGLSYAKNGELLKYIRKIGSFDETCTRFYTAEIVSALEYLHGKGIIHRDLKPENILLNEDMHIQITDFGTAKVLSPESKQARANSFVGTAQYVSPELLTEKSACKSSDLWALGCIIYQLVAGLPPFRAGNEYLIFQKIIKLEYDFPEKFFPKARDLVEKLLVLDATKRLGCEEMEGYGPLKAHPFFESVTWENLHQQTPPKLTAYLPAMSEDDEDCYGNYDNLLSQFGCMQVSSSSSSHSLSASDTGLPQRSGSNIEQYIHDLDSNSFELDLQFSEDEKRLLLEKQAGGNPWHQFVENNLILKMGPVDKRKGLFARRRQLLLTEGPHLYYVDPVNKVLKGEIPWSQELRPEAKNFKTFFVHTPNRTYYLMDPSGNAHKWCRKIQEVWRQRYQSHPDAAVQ
Test: PDK1 IMAP fluorescence polarization assay (inhibition of peptide substrate phosphorylation)
Type: biochemical
Conditions: Table 6; 10 nM PDK1 enzyme, 100 nM peptide substrate, 100 nM PIFtide, 2.5 uM ATP, 1.5 hours

## NCC1CCN(c2c(F)cccc2NC(=O)c2nc(-c3cc(C(F)(F)F)n[nH]3)c[nH]2)CC1 [Compound 48, N-[2-[4-(aminomethyl)-1-piperidinyl]-3-fluorophenyl]-4-[3-(trifluoromethyl)-1H-pyrazol-5-yl]-1H-imidazole-2-carboxamide]
  IC50: 0.251 to 1 µM

## Cc1nc(N)cc(-c2c[nH]c(C(=O)Nc3cccc(F)c3N3CCC(CN)CC3)n2)n1 [Compound 49, N-[2-[4-(aminomethyl)-1-piperidinyl]-3-fluorophenyl]-4-(6-amino-2-methyl-4-pyrimidinyl)-1H-imidazole-2-carboxamide]
  IC50: 0.051 to 0.25 µM

## Cc1cc(-c2c[nH]c(C(=O)Nc3cccc(F)c3N3CCC(CN(C)C)CC3)n2)ccn1 [Compound 50, N-[2-[4-[(dimethylamino)methyl]-1-piperidinyl]-3-fluorophenyl]-4-(2-methyl-4-pyridinyl)-1H-imidazole-2-carboxamide]
  IC50: 0.251 to 1 µM

## NCC1CCN(c2ccc(-c3cn[nH]c3)cc2NC(=O)c2nc(-c3cn[nH]c3)c[nH]2)CC1 [Compound 51, N-[2-[4-(aminomethyl)-1-piperidinyl]-5-(1H-pyrazol-4-yl)phenyl]-4-(1H-pyrazol-4-yl)-1H-imidazole-2-carboxamide]
  IC50: 0.251 to 1 µM

## CCC1(CN)CCN(c2c(F)cccc2NC(=O)c2nc(-c3ccnc(C)c3)c[nH]2)CC1 [Compound 52, N-[2-[4-(aminomethyl)-4-ethyl-1-piperidinyl]-3-fluorophenyl]-4-(2-methyl-4-pyridinyl)-1H-imidazole-2-carboxamide]
  IC50: 0.051 to 0.25 µM

## NCC1CCN(c2c(F)cccc2NC(=O)c2nc(-c3cn[nH]c3)c[nH]2)CC1 [Compound 53, N-[2-[4-(aminomethyl)-1-piperidinyl]-3-fluorophenyl]-4-(1H-pyrazol-4-yl)-1H-imidazole-2-carboxamide]
  IC50: 0.001 to 0.05 µM

## Cc1cc(-c2c[nH]c(C(=O)Nc3cccc(F)c3N3CC4CCC(C3)N4)n2)ccn1 [Compound 54, N-[2-(3,8-diazabicyclo[3.2.1]oct-3-yl)-3-fluorophenyl]-4-(2-methyl-4-pyridinyl)-1H-imidazole-2-carboxamide]
  IC50: 1 to 5 µM

## Cc1cc(-c2c[nH]c(C(=O)Nc3cccc(F)c3N3CCC(C)(CN)CC3)n2)ccn1 [Compound 55, N-[2-[4-(aminomethyl)-4-methyl-1-piperidinyl]-3-fluorophenyl]-4-(2-methyl-4-pyridinyl)-1H-imidazole-2-carboxamide]
  IC50: 0.051 to 0.25 µM

## COC(=O)c1cccc(-c2c[nH]c(C(=O)Nc3cccc(F)c3N3CCC(CN)CC3)n2)c1 [Compound 56, methyl 3-[2-[[[2-[4-(aminomethyl)-1-piperidinyl]-3-fluorophenyl]amino]carbonyl]-1H-imidazol-4-yl]benzoate]
  IC50: 0.051 to 0.25 µM

## CNCC1CCN(c2c(F)cccc2NC(=O)c2nc(-c3ccnc(C)c3)c[nH]2)CC1 [Compound 57, N-[3-fluoro-2-[4-[(methylamino)methyl]-1-piperidinyl]phenyl]-4-(2-methyl-4-pyridinyl)-1H-imidazole-2-carboxamide]
  IC50: 0.251 to 1 µM

## Cc1cc(-c2c[nH]c(C(=O)Nc3cccc(F)c3N3CC4CNCC4C3)n2)ccn1 (stereo not shown) [Compound 58, N-[3-fluoro-2-(hexahydropyrrolo[3,4-c]pyrrol-2(1H)-yl)phenyl]-4-(2-methyl-4-pyridinyl)-1H-imidazole-2-carboxamide]
  IC50: 1 to 5 µM

## CNC(=O)C1CCN(c2c(F)cccc2NC(=O)c2nc(-c3ccnc(C)c3)c[nH]2)CC1 [Compound 59, 1-[2-fluoro-6-[[[4-(2-methyl-4-pyridinyl)-1H-imidazol-2-yl]carbonyl]amino]phenyl]-N-methyl-4-piperidinecarboxamide]
  IC50: 1 to 5 µM

## CCNC(=O)C1CCN(c2c(F)cccc2NC(=O)c2nc(-c3ccnc(C)c3)c[nH]2)CC1 [Compound 60, N-ethyl-1-[2-fluoro-6-[[[4-(2-methyl-4-pyridinyl)-1H-imidazol-2-yl]carbonyl]amino]phenyl]-4-piperidinecarboxamide]
  IC50: 1 to 5 µM

## Cc1cc(-c2c[nH]c(C(=O)Nc3cccc(F)c3N3CCC(C(=O)N(C)C)CC3)n2)ccn1 [Compound 61, 1-[2-fluoro-6-[[[4-(2-methyl-4-pyridinyl)-1H-imidazol-2-yl]carbonyl]amino]phenyl]-N,N-dimethyl-4-piperidinecarboxamide]
  IC50: 1 to 5 µM

## Cc1cc(-c2c[nH]c(C(=O)Nc3cccc(F)c3N3CCC(C(=O)NCC(O)C(F)(F)F)CC3)n2)ccn1 (stereo not shown) [Compound 62, 1-[2-fluoro-6-[[[4-(2-methyl-4-pyridinyl)-1H-imidazol-2-yl]carbonyl]amino]phenyl]-N-(3,3,3-trifluoro-2-hydroxypropyl)-4-piperidinecarboxamide]
  IC50: 1 to 5 µM

## NCC1CCN(c2c(F)cccc2NC(=O)c2nc(-c3cncnc3)c[nH]2)CC1 [Compound 63, N-[2-[4-(aminomethyl)-1-piperidinyl]-3-fluorophenyl]-4-(5-pyrimidinyl)-1H-imidazole-2-carboxamide]
  IC50: 1 to 5 µM

## Cc1cc(-c2c[nH]c(C(=O)Nc3cccc(F)c3N3CCC(C(=O)N4CC[C@H](F)C4)CC3)n2)ccn1 [Compound 64, N-[3-fluoro-2-[4-[(3(S)-fluoro-1-pyrrolidinyl)carbonyl]-1-piperidinyl]phenyl]-4-(2-methyl-4-pyridinyl)-1H-imidazole-2-carboxamide]
  IC50: 1 to 5 µM

## Cc1cc(-c2c[nH]c(C(=O)Nc3cccc(F)c3N3CCC(C(=O)N[C@H](C)c4ccccc4)CC3)n2)ccn1 [Compound 65, 1-[2-fluoro-6-[[[4-(2-methyl-4-pyridinyl)-1H-imidazol-2-yl]carbonyl]amino]phenyl]-N-(1(R)-phenylethyl)-4-piperidinecarboxamide]
  IC50: 1 to 5 µM

## Cc1cc(-c2c[nH]c(C(=O)Nc3cccc(F)c3N3CCC(C(=O)N4CCC4)CC3)n2)ccn1 [Compound 66, N-[2-[4-(1-azetidinylcarbonyl)-1-piperidinyl]-3-fluorophenyl]-4-(2-methyl-4-pyridinyl)-1H-imidazole-2-carboxamide]
  IC50: 1 to 5 µM

## Cc1cc(-c2c[nH]c(C(=O)Nc3cccc(F)c3N3CCC(C(C)(C)N)CC3)n2)ccn1 [Compound 67, N-[2-[4-(1-amino-1-methylethyl)-1-piperidinyl]-3-fluorophenyl]-4-(2-methyl-4-pyridinyl)-1H-imidazole-2-carboxamide]
  IC50: 0.051 to 0.25 µM

## NCC1CCN(c2c(F)cccc2NC(=O)c2nc(-c3cc(C(N)=O)nc(O)n3)c[nH]2)CC1 [Compound 68, 6-[2-[[[2-[4-(aminomethyl)-1-piperidinyl]-3-fluorophenyl]amino]carbonyl]-1H-imidazol-4-yl]-2-hydroxy-4-pyrimidinecarboxamide]
  IC50: 0.001 to 0.05 µM

## NCC1CCN(c2c(F)cccc2NC(=O)c2nc(-c3cc(NCc4ccccc4)nc(N)n3)c[nH]2)CC1 [Compound 69, N-[2-[4-(aminomethyl)-1-piperidinyl]-3-fluorophenyl]-4-[2-amino-6-[(phenylmethyl)amino]-4-pyrimidinyl]-1H-imidazole-2-carboxamide]
  IC50: 0.001 to 0.05 µM

## NCC1CCN(c2c(F)cccc2NC(=O)c2nc(-c3cc(NCc4ccc(C(F)(F)F)cc4)nc(N)n3)c[nH]2)CC1 [Compound 70, N-[2-[4-(aminomethyl)-1-piperidinyl]-3-fluorophenyl]-4-[2-amino-6-[[[4-(trifluoromethyl)phenyl]methyl]amino]-4-pyrimidinyl]-1H-imidazole-2-carboxamide]
  IC50: 0.051 to 0.25 µM

## NCC1CCN(c2c(F)cccc2NC(=O)c2nc(-c3cc(NCc4ccc(F)cc4)nc(N)n3)c[nH]2)CC1 [Compound 71, 4-[2-amino-6-[[(4-fluorophenyl)methyl]amino]-4-pyrimidinyl]-N-[2-[4-(aminomethyl)-1-piperidinyl]-3-fluorophenyl]-1H-imidazole-2-carboxamide]
  IC50: 0.001 to 0.05 µM

## NCC1CCN(c2c(F)cccc2NC(=O)c2nc(-c3cc(N[C@@H](CO)c4ccccc4)nc(N)n3)c[nH]2)CC1 [Compound 72, 4-[2-amino-6-[[2-hydroxy-1(R)-phenylethyl]amino]-4-pyrimidinyl]-N-[2-[4-(aminomethyl)-1-piperidinyl]-3-fluorophenyl]-1H-imidazole-2-carboxamide]
  IC50: 0.001 to 0.05 µM

## NCC1CCN(c2c(F)cccc2NC(=O)c2nc(-c3cc(NCc4ccc(F)cc4)ncn3)c[nH]2)CC1 [Compound 73, N-[2-[4-(aminomethyl)-1-piperidinyl]-3-fluorophenyl]-4-[6-[[(4-fluorophenyl)methyl]amino]-4-pyrimidinyl]-1H-imidazole-2-carboxamide]
  IC50: 0.051 to 0.25 µM

## NCC1CCN(c2c(F)cccc2NC(=O)c2nc(-c3cc(NCc4ccc(F)c(F)c4)ncn3)c[nH]2)CC1 [Compound 74, N-[2-[4-(aminomethyl)-1-piperidinyl]-3-fluorophenyl]-4-[6-[[(3,4-difluorophenyl)methyl]amino]-4-pyrimidinyl]-1H-imidazole-2-carboxamide]
  IC50: 0.051 to 0.25 µM

## NCC1CCN(c2c(F)cccc2NC(=O)c2nc(-c3cc(NCc4ccc(F)c(F)c4)nc(N)n3)c[nH]2)CC1 [Compound 75, 4-[2-amino-6-[[(3,4-difluorophenyl)methyl]amino]-4-pyrimidinyl]-N-[2-[4-(aminomethyl)-1-piperidinyl]-3-fluorophenyl]-1H-imidazole-2-carboxamide]
  IC50: 0.001 to 0.05 µM
